Tests used:
[1] = tested on: Bcl2 protein level in SCC 22B cells; assay: Immunoblot for Bcl2, SCC 22B; assay type: cell-based, human; conditions: cisplatin and C2.01 (50 μM) versus vehicle
[2] = tested on: T1, gfp-tagged La-WT association with cellular mRNAs; assay: RNA immunoprecipitation (RIP) with RT-qPCR in HEK293 expressing gfp-tagged La; assay type: cell-based, human; conditions: 150 μM, HEK293 gfpLa
T1 construct: full length La (La wildtype, La-WT); expressed in transfected cells
Description: RIP experiments were performed with HEK293 stably expressing gfp (green fluorescent protein)-tagged La wiltype (La-WT) protein as described recently. The compound C2:01 was dissolved in 100% DMSO to a concentration of 100 mM. Subsequently, the compound was diluted in media to 10 mM (10% DMSO) and 1 mM (1% DMSO). The 1 mM stock was diluted 6.7-fold in culture media to reach a final concentration of 150 μM (0.15% DMSO). Cells were washed with ice-cold 1x PBS, and lysed by incubating with lysis buffer (20 mM Tris-HCl, (pH 7.4), 150 mM NaCl, 1% IGEPAL CA-630, 10% glycerol, 1 mM EDTA, 50mM NaF, and 1 mM DTT, supplemented with RNase inhibitors and protease inhibitors) on tube rotator for 15 min at 4°C. The cell lysate was sonicated (3 sec for 10 times at power 3, Sonic Dismembrator Model 100) and cleared by centrifugation at 14,000 g at 4°C for 20 min. The cleared lysate was incubated with anti-gfp magnetic beads (MBL International) on the orbital rotor at 4°C overnight. The beads were washed four times with wash buffer I (50 mM Tris-HCl (pH 7.4), 300 mM NaCl, 0.05% IGEPAL CA-630, 20 mM EDTA, 1 mM DTT, and 1 mM MgCl2) and three times with wash buffer II (50 mM Tris-HCl (pH 7.4), 300 mM NaCl, 0.05% IGEPAL CA-630, 20 mM EDTA, 1 mM DTT, 1 mM MgCl2 and 1 M urea)[29].
For preparation of the RNA, the beads were resuspended in wash buffer II and RNA was extracted by applying the Phenol-Chloroform-Isoamyl alcohol method. […] The RNA pellet was dissolved in RNase-DNase-free H2O and quantitated by NanoDrop spectrophotometer and subjected to RT-qPCR analysis. By RT-qPCR the La-specific RIP-RNA pellets (gfp-tagged La) were tested for the presence of Bcl2, CCND1, L37, L22 and S6 mRNA and none of those were detected in the control RIP experiments (gfp alone). The enrichment was calculated by establishing standard curves for specific mRNAs using the RT^2 qPCR Primer Assays (Qiagen): Bcl2 (PPH00079B), CCND1 (PPH00128F), L37 (QT00014105), L22 (QT00079982), S6 (QT02505328) as described recently. […]

Cc1ccc(C(=O)c2ccccc2C(=O)O)c(O)c1 [C2.01, 2-(2-hydroxy-4-methylbenzoyl)benzoic acid]
Bcl2 protein levels (immunoblot) [1]: reduced | binding of La to Bcl2 mRNA in cells (RIP) [2]: selectively impaired | binding of La to CCND1 mRNA in cells (RIP) [2]: selectively impaired | binding of La to TOP mRNAs encoding RPL37, RPL5 and RPSK6 in cells (RIP) [2]: no effect

From publication PMC5349447, “Applying a high-throughput fluorescence polarization assay for the discovery of chemical probes blocking La:RNA interactions in vitro and in cells” (PLoS ONE, 2017)
